Assay results from publication PMC8953583, “The Longitudinal Dividing Bacterium Candidatus Thiosymbion Oneisti Has a Natural Temperature-Sensitive FtsZ Protein with Low GTPase Activity” (International Journal of Molecular Sciences, 2022).

T1: FtsZ^EC (Escherichia coli, UniProt P0A9A6)
T1 construct: purified FtsZ; purification not described in main text
T1 sequence (P0A9A6 1-383): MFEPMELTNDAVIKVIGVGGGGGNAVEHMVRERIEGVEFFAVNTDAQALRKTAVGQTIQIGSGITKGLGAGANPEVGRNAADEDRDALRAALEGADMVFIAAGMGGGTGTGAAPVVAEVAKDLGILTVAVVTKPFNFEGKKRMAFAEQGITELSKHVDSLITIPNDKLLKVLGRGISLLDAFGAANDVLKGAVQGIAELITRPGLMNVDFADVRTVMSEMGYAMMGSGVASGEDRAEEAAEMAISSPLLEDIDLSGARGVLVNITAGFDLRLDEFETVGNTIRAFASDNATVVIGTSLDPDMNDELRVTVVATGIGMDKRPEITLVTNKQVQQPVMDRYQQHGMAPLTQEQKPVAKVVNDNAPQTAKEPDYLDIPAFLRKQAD

T2: FtsZ^TO (Candidatus Thiosymbion oneisti, UniProt I3VI34, I207M)
T2 construct: untagged, expressed from pJW17 (pET11b) in E. coli BL21(DE3) pLysS; anion-exchange purified
T2 sequence (I3VI34 1-397 I207M): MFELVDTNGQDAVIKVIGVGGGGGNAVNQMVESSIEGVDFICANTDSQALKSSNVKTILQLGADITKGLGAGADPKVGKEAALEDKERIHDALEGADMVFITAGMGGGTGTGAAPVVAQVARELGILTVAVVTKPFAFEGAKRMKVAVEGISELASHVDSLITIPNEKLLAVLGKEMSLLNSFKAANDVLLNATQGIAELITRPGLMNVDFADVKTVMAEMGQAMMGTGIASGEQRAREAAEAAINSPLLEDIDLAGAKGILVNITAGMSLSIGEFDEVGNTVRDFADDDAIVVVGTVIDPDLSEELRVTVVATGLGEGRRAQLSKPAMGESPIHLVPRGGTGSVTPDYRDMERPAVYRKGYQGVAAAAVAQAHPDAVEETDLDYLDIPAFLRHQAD

B1: FtsZ^TO (Candidatus Thiosymbion oneisti) (protein)
chain: MFELVDTNGQDAVIKVIGVGGGGGNAVNQMVESSIEGVDFICANTDSQALKSSNVKTILQLGADITKGLGAGADPKVGKEAALEDKERIHDALEGADMVFITAGMGGGTGTGAAPVVAQVARELGILTVAVVTKPFAFEGAKRMKVAVEGISELASHVDSLITIPNEKLLAVLGKEMSLLNSFKAANDVLLNATQGIAELITRPGLINVDFADVKTVMAEMGQAMMGTGIASGEQRAREAAEAAINSPLLEDIDLAGAKGILVNITAGMSLSIGEFDEVGNTVRDFADDDAIVVVGTVIDPDLSEELRVTVVATGLGEGRRAQLSKPAMGESPIHLVPRGGTGSVTPDYRDMERPAVYRKGYQGVAAAAVAQAHPDAVEETDLDYLDIPAFLRHQAD
notes: untagged, expressed from pJW17 (pET11b) in E. coli BL21(DE3) pLysS; anion-exchange purified

Columns and labels:
[1] = molecular target: T1, FtsZ^EC; assay: GTPase assay (phosphate release); assay type: biochemical; details: comparison with FtsZ^TO; conditions in supplement
[2] = molecular target: T2, FtsZ^TO; assay: Malachite green phosphate release GTPase assay; assay type: biochemical; details: 1 mM GTP, HEPES buffer pH 7.5 or MES buffer pH 6.5, 50 mM KCl, 5 mM MgCl2, 28 °C; T7 loop mutant
[3] = substrate: Nc1nc2c(ncn2[C@@H]2O[C@H](COP(=O)(O)OP(=O)(O)OP(=O)(O)O)[C@@H](O)[C@H]2O)c(=O)[nH]1; assay: Malachite green phosphate release GTPase assay, Michaelis-Menten fit; assay type: biochemical, Candidatus Thiosymbion oneisti; details: MES buffer pH 6.5, 50 mM KCl, 5 mM MgCl2, 28 °C, 5 μM FtsZ
Excerpt: Malachite green phosphate release GTPase assay, Michaelis-Menten fit on FtsZ^TO

Molecule | GTPase assay (phosphate release) [1] | Malachite green phosphate release GTPase assay [2] | Km [3] [µM] | kcat [3] [s⁻¹]
Nc1nc2c(ncn2[C@@H]2O[C@H](COP(=O)(O)OP(=O)(O)OP(=O)(O)O)[C@@H](O)[C@H]2O)c(=O)[nH]1 [GTP] | FtsZ^TO showed a low GTPase activity compared to FtsZ^EC (Figure S4a) | Mutations I207M of the T7 loop and I273E of the H10 helix mutations reduced the GTPase | – | –
B1 | – | – | 550 ± 110 | 0.00817 ± 0.000833
